This is an account of results in patent publication US8278337B2, “Substituted pyridines that are JNK inhibitors” (Merck Sharp & Dohme, priority 2006, dated 2012).

Several values for one entry are separate records, joined by “and”; a condition that tells them apart may be missing. Equal values may be shown once. Read-outs that look alike come from different tables or passages of the source.

This experiment addresses JNK1 (Homo sapiens, UniProt P45983). The experiment in a line: DELFIA kinase assay, JNK1. Type of experiment: biochemical. How it is done: Assay DELFIA (Dissociation Enhanced Lanthanide Fluorescence Immuno-Assay) Assay:
Before initiation of kinase reactions, compounds were pre-incubated with the enzyme for 10 minutes. Pre-incubation reactions contained 50 mM HEPES pH 7.3, 10 mM MgCl2, 1 mM DTT, 75 mM NaCl, 1 mM EDTA, 1 mM EGTA, 0.01% CHAPS, 2 nM JNK1, 6 ug/mL biotinylated GST-ATF2, 0.1 mg/ml BSA, 5% DMSO and 0-100 μM compound in a total volume of 40 μL. After a 10 minute room temperature pre-incubation, 10 μL of 35 μM ATP was added to start the reaction (final concentration of ATP=7 uM). Reactions were incubated at room temperature for 30 minutes. A small aliquot (10 uL) was taken and quenched by adding into 190 uL of DELFIA Assay buffer containing 100 mM EDTA. The amount of phosphate transferred to biotinylated GST-ATF2 was measured using the Dissociation Enhanced Lanthanide Fluorescence Immuno-assay (DELFIA) from Perkin Elmer according to manufacturers protocol. Briefly, biotinylated GST-ATF2 was captured on streptavidin coated plates for 1 hour, washed twice, then incubated for 1 hour with a 1:1000 dilution of rabbit-anti-phospho-ATF2 antibody and a 1:3500 dilution of Europium-labeled anti-rabbit secondary antibody. Free antibody was removed with six washes, Europium was dissociated from the antibody, and Europium fluorescence was measured using an excitation wavelength of 340 nm and an emission wavelength of 615 nm. JNK2 and JNK3 kinase reactions were carried out similarly, with the exception that the final concentration of ATP was 4 uM and 2 uM, respectively.

[1] abbreviates: DELFIA, biotinylated GST-ATF2 substrate, 10 minute pre-incubation, final ATP 7 uM.

Sequence of JNK1 (P45983 whole entry, species assumed): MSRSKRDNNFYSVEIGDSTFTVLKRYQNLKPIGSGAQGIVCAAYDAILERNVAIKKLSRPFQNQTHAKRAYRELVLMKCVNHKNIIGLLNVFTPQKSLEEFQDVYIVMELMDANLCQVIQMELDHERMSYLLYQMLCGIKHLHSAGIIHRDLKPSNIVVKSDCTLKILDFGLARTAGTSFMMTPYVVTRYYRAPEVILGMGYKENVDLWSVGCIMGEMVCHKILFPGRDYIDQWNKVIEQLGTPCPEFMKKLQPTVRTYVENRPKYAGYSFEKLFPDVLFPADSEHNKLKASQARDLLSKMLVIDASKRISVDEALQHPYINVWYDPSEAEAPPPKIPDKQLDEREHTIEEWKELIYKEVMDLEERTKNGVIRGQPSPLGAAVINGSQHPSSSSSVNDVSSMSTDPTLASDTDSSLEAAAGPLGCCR

Under setting [1], `CC(C)[C@H](CO)NC(=O)c1cccc(C(=O)NCc2ccc3nc(N)sc3c2)n1` [Compound 59] yielded a half-maximal inhibitory concentration (IC50) of over 1000 nM. On the same count and under the same terms, then `CCS(=O)(=O)N1CCC(NC(=O)c2cccc(C(=O)NCc3ccc(S(C)(=O)=O)cc3)n2)CC1` [Compound 60], with over 1000 nM; and `CS(=O)(=O)c1ccc(CNC(=O)c2cccc(C(=O)NC3CCN(S(=O)(=O)Cc4ccccc4)CC3)n2)cc1` [Compound 61], with over 1000 nM. Take `CCOC(=O)c1cccc(C(=O)NCc2ccc3nc(N)sc3c2)n1` [Compound 62]: the half-inhibitory concentration (IC50) under setting [1] was over 1000 nM. The same measure, in the same setting: then `Nc1nc2ccc(CNC(=O)c3cccc(CO)n3)cc2s1` [Compound 63], with 1030 to 10000 nM and > 1000 nM. On the same count and under the same terms, then `CC(C)CNC(=O)c1cccc(C(=O)NCc2ccc3nc(N)sc3c2)n1` [Compound 64], with over 1000 nM. For `CCCNC(=O)c1cccc(C(=O)NCc2ccc3nc(N)sc3c2)n1` [Compound 65], the 50% inhibitory concentration (IC50) under setting [1] lay within 102 to 959 nM. On the same count and under the same terms, then `C[C@H](NC(=O)c1cccc(C(=O)NCc2ccc3nc(N)sc3c2)n1)C(=O)O` [Compound 66], with > 1000 nM and 1030 to 10000 nM; and `Nc1nc2ccc(CNC(=O)c3cccc(C(=O)NC4CCCC4)n3)cc2s1` [Compound 67], with 102 to 959 nM. The same measure, in the same setting: then `Nc1nc2ccc(CNC(=O)c3cccc(C(=O)N[C@H]4CC[C@H](O)CC4)n3)cc2s1` [Compound 68], with 102 to 959 nM; and `Nc1nc2ccc(CNC(=O)c3cccc(C(=O)NCCCn4ccnc4)n3)cc2s1` [Compound 69], with 102 to 959 nM; and `C[C@@H](CNC(=O)c1cccc(C(=O)NCc2ccc3nc(N)sc3c2)n1)c1ccccc1` [Compound 70], with 102 to 959 nM.

In turn, `CC(C)CCNC(=O)c1cccc(C(=O)NCc2ccc3nc(N)sc3c2)n1` [Compound 71] came in with a 50% inhibitory concentration (IC50) under setting [1] of 102 to 959 nM. Still for that read-out and setting: then `CCOC(=O)N1CCC(NC(=O)c2cccc(C(=O)NCc3ccc(-n4cccn4)cc3)n2)CC1` [Compound 72], with 102 to 959 nM; and `CCOC(=O)N1CCC(NC(=O)c2cccc(C(=O)NCc3ccc(C)c(F)c3)n2)CC1` [Compound 73], with > 1000 nM and 1030 to 10000 nM; and `CCOC(=O)N1CCC(NC(=O)c2cccc(C(=O)NCc3ccc(OC)c(OC)c3)n2)CC1` [Compound 74], with 102 to 959 nM.

As for `COC(=O)[C@H](C)NC(=O)c1cccc(C(=O)NCc2ccc3nc(N)sc3c2)n1` [Compound 75], the IC50 under setting [1] is 102 to 959 nM. For the compound `CS(=O)(=O)c1ccc(-n2cc(CNC(=O)c3cccc(C(=O)NC4CCC4)n3)cn2)cc1` [Compound 76], the IC50 by setting is: (DELFIA assay, 2 nM JNK1, 7 uM ATP, 10 min pre-incubation, second table, read-out: JNK 1 IC50) 10 nM; under setting [1], 4 to 19 nM and 4 to 97 nM.

Turning to `CS(=O)(=O)c1ccc(-n2cc(CNC(=O)c3cccc(C(=O)NC4CCCCC4)n3)cn2)cc1` [Compound 77], under setting [1], the 50% inhibitory concentration (IC50) was 4 to 97 nM. The same measure, in the same setting: then `Cc1cc(NC(=O)c2cccc(C(=O)NCc3cnn(-c4ccc(S(C)(=O)=O)cc4)c3)n2)no1` [Compound 78], with 4 to 97 nM; and `CC(C)NC(=O)c1cccc(C(=O)NCc2nc3ccccc3s2)n1` [Compound 85], with 4 to 97 nM.

`COc1ccc(-c2cc(CNC(=O)c3cccc(C(=O)NC(C)C)n3)no2)cc1` [Compound 86]: the IC50 under setting [1] lay within 4 to 97 nM. The compound `CC(C)NC(=O)c1cccc(C(=O)NCc2ccc3sc(NC(N)=O)nc3c2)n1` [Compound 87] returned an IC50 under setting [1] of 4 to 97 nM. In the case of `CC(C)NC(=O)c1cccc(C(=O)NCc2ccc(S(C)(=O)=O)cc2)n1` [Compound 88], the concentration for half-maximal inhibition (IC50) under setting [1] fell in the range of 102 to 959 nM.

`CC(C)NC(=O)c1cccc(C(=O)NCc2ccc3c(c2)OCO3)n1` [Compound 89] returned a half-maximal inhibitory concentration (IC50) under setting [1] of 102 to 959 nM.

Take `CC(C)NC(=O)c1cccc(C(=O)Nc2cccnc2)n1` [Compound 90]: the IC50 under setting [1] is > 1000 nM and 1030 to 10000 nM. For the compound `CC(C)NC(=O)c1cccc(C(=O)Nc2ccc3nccnc3c2)n1` [Compound 91], under setting [1], the IC50 is > 1000 nM and 1030 to 10000 nM. Still for that read-out and setting: then `Cc1cnc(CNC(=O)c2cccc(C(=O)NC(C)C)n2)cn1` [Compound 92], with > 1000 nM and 1030 to 10000 nM; and `CC(C)NC(=O)c1cccc(C(=O)NCc2cccnc2)n1` [Compound 93], with 102 to 959 nM; and `CC(C)NC(=O)c1cccc(C(=O)NCC2CCN(C(=O)OC(C)(C)C)CC2)n1` [Compound 94], with 102 to 959 nM.

With `CC(C)NC(=O)c1cccc(C(=O)NCC2CCN(C(=O)OC(C)(C)C)C2)n1` (stereo not shown) [Compound 95], the 50% inhibitory concentration (IC50) under setting [1] was > 1000 nM and 1030 to 10000 nM.

In turn, `CC(C)NC(=O)c1cccc(C(=O)NCc2cccc(Cl)c2)n1` [Compound 96] returned a half-inhibitory concentration (IC50) under setting [1] of 102 to 959 nM.

For `CC(C)NC(=O)c1cccc(C(=O)NCc2ccc(Cl)cc2)n1` [Compound 97], the IC50 under setting [1] is 102 to 959 nM.

The compound `CC(C)NC(=O)c1cccc(C(=O)NCc2ccc(S(N)(=O)=O)cc2)n1` [Compound 98] showed a 50% inhibitory concentration (IC50) under setting [1] of 102 to 959 nM. Under setting [1], `CC(C)NC(=O)c1cccc(C(=O)NCc2ccc(Cl)nc2)n1` [Compound 99] yielded an IC50 of 102 to 959 nM.

As to `CC(C)NC(=O)c1cccc(C(=O)NCc2cnn(-c3ccccc3)c2)n1` [Compound 100], the half-inhibitory concentration (IC50) under setting [1] fell in the range of 4 to 97 nM. On the same count and under the same terms, then `CC(C)NC(=O)c1cccc(C(=O)NCc2ccccn2)n1` [Compound 101], with 1030 to 10000 nM and > 1000 nM; and `Cc1nn(C)c(C)c1CNC(=O)c1cccc(C(=O)NC(C)C)n1` [Compound 102], with 1030 to 10000 nM and > 1000 nM.

For the compound `Cc1cc(CNC(=O)c2cccc(C(=O)NC(C)C)n2)nn1C` [Compound 103], under setting [1], the IC50 was 1030 to 10000 nM and > 1000 nM.

As for `CC(C)NC(=O)c1cccc(C(=O)NCc2nccs2)n1` [Compound 104], under setting [1], the IC50 was 1030 to 10000 nM and > 1000 nM.

For `Cc1nn(-c2ccccc2)c(C)c1CNC(=O)c1cccc(C(=O)NC(C)C)n1` [Compound 105], the concentration for half-maximal inhibition (IC50) under setting [1] was 1030 to 10000 nM and > 1000 nM. Turning to `CC(C)NC(=O)c1cccc(C(=O)NCc2nc3ccccc3[nH]2)n1` [Compound 106], under setting [1], the IC50 is 102 to 959 nM. Still for that read-out and setting: then `CC(C)NC(=O)c1cccc(C(=O)NCc2nc3ccccc3n2C)n1` [Compound 107], with > 1000 nM and 1030 to 10000 nM; and `Cc1nc2cc(CNC(=O)c3cccc(C(=O)NC(C)C)n3)ccc2[nH]1` [Compound 108], with 102 to 959 nM; and `CC(C)NC(=O)c1cccc(C(=O)NCc2ccc(-n3cccn3)cc2)n1` [Compound 109], with 102 to 959 nM. On to `Cc1ccc(CNC(=O)c2cccc(C(=O)NC(C)C)n2)cc1F` [Compound 110], for which, under setting [1], the half-inhibitory concentration (IC50) is 102 to 959 nM. Still for that read-out and setting: then `COc1ccc(CNC(=O)c2cccc(C(=O)NC(C)C)n2)cc1OC` [Compound 111], with 102 to 959 nM; and `CC(C)NC(=O)c1cccc(C(=O)NCc2ccc(-c3ccccc3)cc2)n1` [Compound 112], with 102 to 959 nM. Still for that read-out and setting: then `CC(C)NC(=O)c1cccc(C(=O)NCc2ccc(N)nc2)n1` [Compound 113], with 102 to 959 nM. The same measure, in the same setting: then `CC(C)NC(=O)c1cccc(C(=O)NCc2ccc(N3CCCC3)nc2)n1` [Compound 114], with 102 to 959 nM; and `CC(C)NC(=O)c1cccc(C(=O)NCc2ccc(N3CCOCC3)nc2)n1` [Compound 115], with 102 to 959 nM. For `CC(C)NC(=O)c1cccc(C(=O)NCc2cnn(C)c2)n1` [Compound 116], under setting [1], the IC50 was > 1000 nM and 1030 to 10000 nM. The same measure, in the same setting: then `CC(C)NC(=O)c1cccc(C(=O)NCc2cnn(C(C)C)c2)n1` [Compound 117], with 102 to 959 nM; and `CC(C)NC(=O)c1cccc(C(=O)NCc2ccc(-c3ccccn3)s2)n1` [Compound 118], with 102 to 959 nM; and `CC(C)NC(=O)c1cccc(C(=O)NCc2cn[nH]c2)n1` [Compound 119], with > 1000 nM and 1030 to 10000 nM.

Take `CC(C)NC(=O)c1cccc(C(=O)NCc2ccc(N3CCCC3=O)cc2)n1` [Compound 120]: under setting [1], the IC50 lay within 102 to 959 nM. The same measure, in the same setting: then `CC(C)NC(=O)c1cccc(C(=O)NC(C)c2ccc(S(C)(=O)=O)cc2)n1` (stereo not shown) [Compound 121], with 102 to 959 nM; and `CC(C)NC(=O)c1cccc(C(=O)NNc2ccc(S(C)(=O)=O)cc2)n1` [Compound 122], with > 1000 nM and 1030 to 10000 nM.

As to `CC(C)NC(=O)c1cccc(C(=O)N[C@H](C)c2ccc(O)cc2)n1` [Compound 123], the IC50 under setting [1] is 102 to 959 nM. Still for that read-out and setting: then `CC(C)NC(=O)c1cccc(C(=O)N[C@@H](C)c2ccc(O)cc2)n1` [Compound 124], with 102 to 959 nM.

`CC(C)NC(=O)c1cccc(C(=O)NCc2cccc(-c3ccccc3)c2)n1` [Compound 125] registered an IC50 under setting [1] of 4 to 97 nM.

With `CC(C)NC(=O)c1cccc(C(=O)NCc2cccc(Oc3ccccn3)c2)n1` [Compound 126], the 50% inhibitory concentration (IC50) under setting [1] lay within 102 to 959 nM. The compound `Cc1nc2cc(CNC(=O)c3cccc(C(=O)NC(C)C)n3)ccc2n1C` [Compound 127] yielded an IC50 under setting [1] of 102 to 959 nM. On the same count and under the same terms, then `Cc1nc2ccc(CNC(=O)c3cccc(C(=O)NC(C)C)n3)cc2n1C` [Compound 128], with 102 to 959 nM. Same read-out and setting: then `Cc1cccc(-n2cc(CNC(=O)c3cccc(C(=O)NC(C)C)n3)cn2)c1` [Compound 129], with 4 to 97 nM and 4 to 19 nM. Still for that read-out and setting: then `Cc1ccc(-n2cc(CNC(=O)c3cccc(C(=O)NC(C)C)n3)cn2)cc1` [Compound 130], with 4 to 19 nM and 4 to 97 nM; and `CC(C)NC(=O)c1cccc(C(=O)NCc2cnn(-c3ccc(F)c(Cl)c3)c2)n1` [Compound 131], with 4 to 97 nM.

`CC(C)NC(=O)c1cccc(C(=O)NCc2cnn(-c3cccc(Cl)c3)c2)n1` [Compound 132]: under setting [1], the IC50 was 4 to 97 nM. Same read-out and setting: then `CC(C)NC(=O)c1cccc(C(=O)NCc2cnn(-c3ccc(Cl)cc3)c2)n1` [Compound 133], with 4 to 97 nM.
